The source of these data is paper PMC8022858, “Discovery of bone morphogenetic protein 7-derived peptide sequences that attenuate the human osteoarthritic chondrocyte phenotype” (Molecular Therapy. Methods & Clinical Development, 2021).

This assay relates to HACs in OA synovial fluid (SF). Nature of the assay: Peptide bioactivity on HACs cultured in OA synovial fluid (gene expression, sGAG, ALP activity, PGE2). It counts as cell-based, human. The note with it: 100 nM peptide, 20% (v/v) OA SF; for sGAG content of HAC cultures: 24 h (Figure 3D); for retainment of bioactivity on ALP activity in OA SF environment: 24 h (Figure 3E); for retainment of bioactivity on PGE2 secretion in OA SF environment: 24 h (Figure 3F); for expression of NKX3-2 / OA SF-induced expression of RUNX2, COL10A1, ALPL, MMP13, ADAMTS5, COX-2, and IL6 / OA SF-induced decline of SOX9 and COL2A1 expression: 24 h; for expression of NKX3-2: n = 3 donors (Figure 3A); for OA SF-induced expression of RUNX2, COL10A1, ALPL, MMP13, ADAMTS5, COX-2, and IL6: n = 3 donors (Figures 3B, 3C); for OA SF-induced decline of SOX9 and COL2A1 expression: n = 3 donors in triplicate (Figure 3A). The text has this: To further corroborate the potential OA-protective properties of peptides p[63−82] and p[113−132], we mimicked the OA environment by exposing non-OA-HACs to OA SF. Culturing non-OA-HACs in the presence of OA SF reduced their SOX9, COL2A1, and NKX3-2 expression (Figure 3A), whereas expression of RUNX2, COL10A1, ALPL, MMP13, ADAMTS5, COX-2, and IL6 was induced by OA SF (Figures 3B and 3C). This was accompanied by increased ALP activity and PGE2 secretion (Figures 3E and 3F). […] The OA SF-induced expression of RUNX2, COL10A1, ALPL, MMP13, ADAMTS5, COX-2, and IL6 was, without exception, mitigated by peptides p[63−82] and p[113−132] (Figures 3B and 3C). sGAG content of HAC cultures was unaltered by the peptides (Figure 3D). Retainment of peptide p[63−82] and p[113−132] bioactivity on HACs in an OA SF environment was also confirmed for ALP activity (Figure 3E) and PGE2 secretion (Figure 3F).
Figure 3 Bioactivity of peptides p[63−82] and p[113−132] on OA articular chondrocytes in OA synovial fluid (SF) […] (n = 3 individual donors, tested in triplicate) were exposed to 100 nM peptide p[63−82] or p[113−132] in the presence of OA SF (20% [v/v]; equal ratio mix from five individual donors). Control is 20% (v/v) 0.9% NaCl. Cells were cultured in these conditions for 24 h and analyzed for mRNA expression of indicated genes (normalized for 28S rRNA expression and relative to control condition). (A) Expression of SOX9, COL2A1, and NKX3-2 mRNAs. (B) Expression of RUNX2, COL10A1, and ALPL mRNAs. (C) Expression of MMP13, ADAMTS5, COX-2, and IL-6 mRNAs. (D) GAG content (normalized to total protein content) was determined in the same conditions. (E) ALP enzyme activity in cell lysates of the same conditions was determined and normalized for total protein content. (F) PGE2 levels in culture supernatants of the same conditions. Error bars represent mean ± SEM, and statistical significance for peptide conditions or control versus SF condition as determined by unpaired two-tailed Student’s t test is represented as ∗p < 0.05, ∗∗p < 0.01, and ∗∗∗p < 0.001.
Cartilage was obtained from total knee arthroplasty of end-stage (K&L grades 3−4) OA patients and from resected knee cartilage from cartilage repair procedures of non-OA patients. Medical ethical permission was received from the Maastricht University Medical Center Medical Ethical Committee (approval number 2017-0183). Chondrocytes were isolated using collagenase as described earlier.[27] The HACs were cultured until passage two in DMEM/F12 (Life Technologies), 10% fetal calf serum (FCS; Sigma-Aldrich), 1% antibiotic/antimycotic (Life Technologies), and 1% non-essential amino acids (Life Technologies) in a humidified atmosphere at 37°C, 5% CO2. SW1353 cells (ATCC HTB-94, short tandem repeat [STR] profiled)[54] were cultured in identical conditions. For experiments, cells were plated in technical triplicates at 30,000 cells/cm^2. BMP7 (R&D Systems) was used at 1 nM. OA SF was perioperatively collected from OA patients (same medical ethics statement [2017-0183] as for cartilage above) and was centrifuged to remove cells/debris. For experiments, an SF pool from five OA patients was prepared (equal volume ratios) and applied on cells in a 20% (v/v) concentration. For RNAi, scrambled and NKX3-2 siRNA duplexes (Table S1) were custom made (Eurogentec). Transfection (100 nM siRNA) in HACs was performed using HiPerFect (QIAGEN) according to the manufacturer’s protocol. The BRE reporter,[32] CAGA12 reporter,[33] or cytomegalovirus (CMV)-Gaussia as transfection control[55] were transfected (100 ng/μL) in SW1353 cells using FuGENE (Promega) according to the manufacturer’s protocol. […]

H-SVLYFDDSSNVILKKYRNMV-OH [p[113−132]]: the “sGAG content of HAC cultures” value is reported as “unaltered”, the “retainment of bioactivity on ALP activity in OA SF environment” value is given as “confirmed”, the “retainment of bioactivity on PGE2 secretion in OA SF environment” value is listed as “confirmed” and the “expression of NKX3-2” value is reported as “induced by the peptides to levels higher than in the control condition”. For the same substance, the “OA SF-induced expression of RUNX2, COL10A1, ALPL, MMP13, ADAMTS5, COX-2, and IL6” value was “mitigated”; the “OA SF-induced decline of SOX9 and COL2A1 expression” value is recorded as “counteracted to some extent”.

Consider H-AAYYSEGESAFPLNSYMNAT-OH [p[63−82]], for which the “sGAG content of HAC cultures” value was “unaltered”, the “retainment of bioactivity on ALP activity in OA SF environment” value was “confirmed”, the “retainment of bioactivity on PGE2 secretion in OA SF environment” value is on record as “confirmed” and the “expression of NKX3-2” value is given as “induced by the peptides to levels higher than in the control condition”. The “OA SF-induced expression of RUNX2, COL10A1, ALPL, MMP13, ADAMTS5, COX-2, and IL6” value is listed as “mitigated”; the “OA SF-induced decline of SOX9 and COL2A1 expression” value is recorded as “counteracted to some extent”.
